Assay results reported in patent US12629374B2, “Antimalarial agents” (Merck Sharp & Dohme LLC, priority 2020, dated 2026).

Tested on: ring stage parasites
Experiment: Parasite growth potency assay, 72 hours, LDH readout
Type: cell-based
Settings: 72 h, parasite growth measured by LDH assay after 72 hours at 37° C.; 0.7% rings, 2% haematocrit; read-out: EC50
Summary of the method: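 Parasite growth was quantified by LDH assay after a −80 °C freeze-thaw. Before that, compound was incubated for 72 h at 37 °C under humidified gas with ring-stage cultures adjusted to 0.7% parasitemia and 2% haematocrit in serum- and albumax-supplemented RPMI-Hepes.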

Point of comparison: `CCC1(CC)CC(=O)N(Cc2cccc(C(=O)N[C@@H]3c4ccccc4C[C@H]3O)n2)C(=N)N1` [Example 37, [4,4-diethyl-1-[[6-[[(1R,2R)-2-hydroxyindan-1-yl]carbamoyl]-2-pyridyl]methyl]-6-oxo-hexahydropyrimidin-2-ylidene]ammonium; 2,2,2-trifluoroacetate], EC50 14.4 nM. Against it:
- CCC1(CC)CC(=O)N(Cc2ccc(F)c(C(=O)N[C@H]3CCOc4ccccc43)c2)C(=N)N1 [Example 21, [1-[[3-[[(4S)-chroman-4-yl]carbamoyl]-4-fluoro-phenyl]methyl]-4,4-diethyl-6-oxo-hexahydropyrimidin-2-ylidene]ammonium; 2,2,2-trifluoroacetate] — 4.1-fold lower, 3.5 nM
- CCC1(CC)CC(=O)N(Cc2ccnc(C(=O)N[C@H]3CCOc4ccccc43)c2)C(=N)N1 [Example 22, [1-[[2-[[(4S)-chroman-4-yl]carbamoyl]-4-pyridyl]methyl]-4,4-diethyl-6-oxo-hexahydropyrimidin-2-ylidene]ammonium; 2,2,2-trifluoroacetate] — within 1.5-fold, 17.2 nM
- CCC1(CC)CC(=O)N(Cc2cc(C(=O)N[C@H]3CCOc4ccccc43)ccn2)C(=N)N1 [Example 23, [1-[[4-[[(4S)-chroman-4-yl]carbamoyl]-2-pyridyl]methyl]-4,4-diethyl-6-oxo-hexahydropyrimidin-2-ylidene]ammonium; 2,2,2-trifluoroacetate] — within 1.5-fold, 11.5 nM
- CCC1(CC)CC(=O)N(Cc2cncc(C(=O)N[C@H]3CCOc4ccccc43)c2)C(=N)N1 [Example 24, [1-[[5-[[(4S)-chroman-4-yl]carbamoyl]-3-pyridyl]methyl]-4,4-diethyl-6-oxo-hexahydropyrimidin-2-ylidene]ammonium; 2,2,2-trifluoroacetate] — within 1.5-fold, 10.1 nM
- CC(C)[C@]1(C)CC(=O)N([C@H](C)c2cccc(C(=O)N[C@H]3CCOc4ccccc43)c2)C(=N)N1 [Example 25, [(4S)-1-[1-[3-[[(4S)-chroman-4-yl]carbamoyl]phenyl]ethyl]-4-isopropyl-4-methyl-6-oxo-hexahydropyrimidin-2-ylidene]ammonium; 2,2,2-trifluoroacetate] — 3.3-fold lower, 4.4 nM
- CC(C)[C@]1(C)CC(=O)N([C@@H](c2cccc(C(=O)N[C@H]3CCOc4ccccc43)c2)C23CC(C2)C3)C(=N)N1 [Example 26, [(4S)-1-[1-bicyclo[1.1.1]pentanyl-[3-[[(4S)-chroman-4-yl]carbamoyl]phenyl]methyl]-4-isopropyl-4-methyl-6-oxo-hexahydropyrimidin-2-ylidene]ammonium; 2,2,2-trifluoroacetate] — 1.6-fold lower, 8.9 nM
- CC(C)[C@]1(C)CC(=O)N([C@H](C)c2cccc(C(=O)N[C@@H]3c4ccccc4C[C@H]3O)c2)C(=N)N1 [Example 27, [(4S)-1-[1-[3-[[(1R,2R)-2-hydroxyindan-1-yl]carbamoyl]phenyl]ethyl]-4-isopropyl-4-methyl-6-oxo-hexahydropyrimidin-2-ylidene]ammonium; 2,2,2-trifluoroacetate] — 4.5-fold lower, 3.2 nM
- CC(C)[C@]1(C)CC(=O)N([C@@H](c2cccc(C(=O)N[C@@H]3c4ccccc4C[C@H]3O)c2)C23CC(C2)C3)C(=N)N1 [Example 28, [(4S)-1-[1-bicyclo[1.1.1]pentanyl-[3-[[(1R,2R)-2-hydroxyindan-1-yl]carbamoyl]phenyl]methyl]-4-isopropyl-4-methyl-6-oxo-hexahydropyrimidin-2-ylidene]ammonium; 2,2,2-trifluoroacetate] — 13-fold lower, 1.1 nM
- CC(C)[C@]1(C)CC(=O)N(Cc2cc(F)cc(C(=O)N[C@H]3CCOc4ccccc43)c2)C(=N)N1 [Example 29, [(4S)-1-[[3-[[(4S)-chroman-4-yl]carbamoyl]-5-fluoro-phenyl]methyl]-4-isopropyl-4-methyl-6-oxo-hexahydropyrimidin-2-ylidene]ammonium; 2,2,2-trifluoroacetate] — 1.9-fold lower, 7.7 nM
- CC(C)[C@]1(C)CC(=O)N(Cc2cc(F)cc(C(=O)N[C@@H]3c4ccccc4C[C@H]3O)c2)C(=N)N1 [Example 30, [(4S)-1-[[3-fluoro-5-[[(1R,2R)-2-hydroxyindan-1-yl]carbamoyl]phenyl]methyl]-4-isopropyl-4-methyl-6-oxo-hexahydropyrimidin-2-ylidene]ammonium; 2,2,2-trifluoroacetate] — 4.6-fold lower, 3.1 nM
- CCC1(CC)CC(=O)N([C@H](C)c2cccc(C(=O)N[C@H]3CCOc4ccccc43)c2)C(=N)N1 [Example 31, [1-[1-[3-[[(4S)-chroman-4-yl]carbamoyl]phenyl]ethyl]-4,4-diethyl-6-oxo-hexahydropyrimidin-2-ylidene]ammonium; 2,2,2-trifluoroacetate] — 18-fold lower, 0.8 nM
- CCC1(CC)CC(=O)N([C@@H](c2cccc(C(=O)N[C@H]3CCOc4ccccc43)c2)C23CC(C2)C3)C(=N)N1 [Example 32, [1-[1-bicyclo[1.1.1]pentanyl-[3-[[(4S)-chroman-4-yl]carbamoyl]phenyl]methyl]-4,4-diethyl-6-oxo-hexahydropyrimidin-2-ylidene]ammonium; 2,2,2-trifluoroacetate] — 7.2-fold lower, 2 nM
- CCC1(CC)CC(=O)N([C@H](C)c2cccc(C(=O)N[C@@H]3c4ccccc4C[C@H]3O)c2)C(=N)N1 [Example 33, [4,4-diethyl-1-[1-[3-[[(1R,2R)-2-hydroxyindan-1-yl]carbamoyl]phenyl]ethyl]-6-oxo-hexahydropyrimidin-2-ylidene]ammonium; 2,2,2-trifluoroacetate] — 5.1-fold lower, 2.8 nM
- CCC1(CC)CC(=O)N([C@@H](c2cccc(C(=O)N[C@@H]3c4ccccc4C[C@H]3O)c2)C23CC(C2)C3)C(=N)N1 [Example 34, [1-[1-bicyclo[1.1.1]pentanyl-[3-[[(1R,2R)-2-hydroxyindan-1-yl]carbamoyl]phenyl]methyl]-4,4-diethyl-6-oxo-hexahydropyrimidin-2-ylidene]ammonium; 2,2,2-trifluoroacetate] — 29-fold lower, 0.5 nM
- CCC1(CC)CC(=O)N(Cc2cc(F)cc(C(=O)N[C@@H]3c4ccccc4C[C@H]3O)c2)C(=N)N1 [Example 35, [4,4-diethyl-1-[[3-fluoro-5-[[(1R,2R)-2-hydroxyindan-1-yl]carbamoyl]phenyl]methyl]-6-oxo-hexahydropyrimidin-2-ylidene]ammonium; 2,2,2-trifluoroacetate] — 7.2-fold lower, 2 nM
- CCC1(CC)CC(=O)N(Cc2ccnc(C(=O)N[C@@H]3c4ccccc4C[C@H]3O)c2)C(=N)N1 [Example 36, [4,4-diethyl-1-[[2-[[(1R,2R)-2-hydroxyindan-1-yl]carbamoyl]-4-pyridyl]methyl]-6-oxo-hexahydropyrimidin-2-ylidene]ammonium; 2,2,2-trifluoroacetate] — within 1.5-fold, 16.8 nM
- CCC1(CC)CC(=O)N(Cc2cc(C(=O)N[C@@H]3c4ccccc4C[C@H]3O)ccn2)C(=N)N1 [Example 38, [4,4-diethyl-1-[[4-[[(1R,2R)-2-hydroxyindan-1-yl]carbamoyl]-2-pyridyl]methyl]-6-oxo-hexahydropyrimidin-2-ylidene]ammonium; 2,2,2-trifluoroacetate] — 2.2-fold higher, 31.3 nM
- CCC1(CC)CC(=O)N(Cc2cncc(C(=O)N[C@@H]3c4ccccc4C[C@H]3O)c2)C(=N)N1 [Example 39, [4,4-diethyl-1-[[5-[[(1R,2R)-2-hydroxyindan-1-yl]carbamoyl]pyridin-1-ium-3-yl]methyl]-6-oxo-hexahydropyrimidin-2-ylidene]ammonium; 2,2,2-trifluoroacetate] — 2.1-fold higher, 30.4 nM
